Measurements: patent US5070210A, “Novel ketenimines as intermediates for insecticides” (ICI Americas Inc., priority 1990, dated 1991)

Key:
Assay type in all cases: in vivo
[1] = test system: Housefly [Musca domestica]; assay: Housefly insecticidal test; details: μg per 25 female flies; mortality after 48 hours
Method in brief: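 LC50 (μg compound per 25 female flies) derives from dosage-mortality curves of 48 h kill. Flies, females 1-2 days old, were held 25 per cage over a dish coated with dried acetone deposit, starting at 100 μg per cage and descending.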

[2] = test system: Cabbage Looper [Trichoplusia ni (Hubner)]; assay: Cabbage looper insecticidal test; details: second-instar larvae, percent in solution; 3-5 days
Method in brief: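 Squash cotyledons dipped in test solution (acetone-water 50-50, ≤0.1%), dried, offered to 5 second-instar larvae; mortality after 3-5 days gives LC50.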

[3] = test system: Tobacco Budworm [Heliothis virescens (Fabricius)] eggs; assay: Tobacco budworm egg test; details: 2-day old eggs, percent in solution
Method in brief: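 Step 1: dip 2-day old egg patches in acetone test solutions (top concentration 0.1%). Step 2: hold in dishes with rearing medium at 78° F. Step 3: record mortality after control hatch and feeding.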

[4] = test system: Maize weevil [Sitophilus Zeamais (Motschulsky)]; assay: Maize weevil insecticidal test; details: adult weevils, percent in solution; 48 hours
Method: The compounds in Tables 1 and 2 above were tested for insecticidal activity using the following testing procedures. LC50 values, based on the results of these tests and calculated according to dosage-mortality curves, are expressed in Table 3.
Maize weevil [Sitophilus Zeamais (Motschulsky)]:
Test compounds were diluted in a 50:50 acetone:water solution. Four corn seeds [Zea mays (L.)] which had been immersed in test solutions for 2-3 seconds and allowed to dry were placed in containers together with 10 adult weevils. The containers were covered and kept at a temperature of about 25° C. Mortality was recorded after 48 hours. Test concentrations ranged from 0.01% down to that at which 50% mortalilty occurred. The LC50 values are expressed below in Table 3 under the heading "MW" in terms of percent of the test compound in solution.

Clc1ccc(N=C(OCc2cccc(Oc3ccccc3)c2)C2CCC2)cc1 [Compound 8]
LC50, HF [1]: 50 µg
LC50, CL [2]: 0.01%
LC50, TBW, E (TBW-E) [3]: > 0.1%
LC50, MW [4]: > 0.01%

CC(C)(C)C(=Nc1cccc(C(F)(F)F)c1)OCc1cccc(Oc2ccccc2)c1 [Compound 88]
LC50, HF [1]: > 100 µg
LC50, CL [2]: 0.018%
LC50, TBW, E (TBW-E) [3]: > 0.1%
LC50, MW [4]: > 0.01%

Fc1ccc(Oc2cccc(COC(=Nc3ccc(F)c(Cl)c3)C3CC3)c2)cc1 [Compound 116]
LC50, HF [1]: 15 µg
LC50, CL [2]: 0.00025%
LC50, TBW, E (TBW-E) [3]: 0.05%
LC50, MW [4]: > 0.01%

CCc1ccc(N=C(OCc2cccc(Oc3ccccc3)c2)C(C)(C)C)cc1 [Compound 163]
LC50, HF [1]: > 100 µg
LC50, CL [2]: 0.004%
LC50, TBW, E (TBW-E) [3]: > 0.1%
LC50, MW [4]: > 0.01%

CC(C)C(=Nc1ccc(F)c(Cl)c1)OCc1cccc(Oc2cccc(Cl)c2)c1 [Compound 203]
LC50, HF [1]: 43 µg
LC50, CL [2]: 0.0025%
LC50, TBW, E (TBW-E) [3]: 0.06%
LC50, MW [4]: > 0.01%

CC(C)C(=Nc1cc(F)c(Cl)cc1Cl)OCc1ccc(F)c(Oc2ccc(F)cc2)c1 [Compound 292]
LC50, HF [1]: 41 µg
LC50, CL [2]: 0.00075%
LC50, TBW, E (TBW-E) [3]: 0.05%
LC50, MW [4]: > 0.01%

Fc1ccc(Oc2cccc(COC(=Nc3cccc(C(F)(F)F)c3)C3CC3)c2)cc1 [Compound 294]
LC50, HF [1]: > 100 µg
LC50, CL [2]: 0.017%
LC50, TBW, E (TBW-E) [3]: > 0.1%
LC50, MW [4]: > 0.01%

CC(C)C(=Nc1ccc(F)c(Br)c1)OCc1ccc(F)c(Oc2ccccc2)c1 [Compound 299]
LC50, HF [1]: 8 µg
LC50, CL [2]: 0.0005%
LC50, TBW, E (TBW-E) [3]: 0.017%
LC50, MW [4]: > 0.01%

CC(C)C(=Nc1ccc(C(C)(C)C)cc1)OCc1ccc(F)c(Oc2ccc(Cl)cc2)c1 [Compound 301]
LC50, HF [1]: > 100 µg
LC50, CL [2]: 0.008%
LC50, TBW, E (TBW-E) [3]: > 0.1%
LC50, MW [4]: > 0.01%

CC(C)C(=Nc1cccc([N+](=O)[O-])c1)OCc1cccc(Oc2ccccc2)c1 [Compound 302]
LC50, HF [1]: 15 µg
LC50, CL [2]: 0.003%
LC50, TBW, E (TBW-E) [3]: > 0.1%
LC50, MW [4]: > 0.01%

CC(C)C(=Nc1c(F)c(F)cc(F)c1F)OCc1cccc(Oc2ccc(F)cc2)c1 [Compound 304]
LC50, HF [1]: > 100 µg
LC50, CL [2]: 0.0024%
LC50, TBW, E (TBW-E) [3]: > 0.1%
LC50, MW [4]: > 0.01%

CC(Br)C(=Nc1ccc2c(c1)OCO2)OCc1cccc(Oc2ccccc2)c1 (stereo not drawn) [Compound 306]
LC50, HF [1]: > 100 µg
LC50, CL [2]: 0.005%
LC50, TBW, E (TBW-E) [3]: 0.1%
LC50, MW [4]: > 0.01%

CC(C)C(=Nc1ccc([N+](=O)[O-])c(C(F)(F)F)c1)OCc1cccc(Oc2ccccc2)c1 [Compound 307]
LC50, HF [1]: > 100 µg
LC50, CL [2]: 0.002%
LC50, TBW, E (TBW-E) [3]: 0.08%
LC50, MW [4]: > 0.01%

CC(C)C(=Nc1ccc(F)c(I)c1)OCc1ccc(F)c(Oc2ccccc2)c1 [Compound 334]
LC50, HF [1]: 9 µg
LC50, CL [2]: 0.0007%
LC50, TBW, E (TBW-E) [3]: 0.013%
LC50, MW [4]: > 0.01%

CC(C)c1ccc(N=C(OCc2cccc(Oc3ccccc3)c2)C2CCC2)cc1 [Compound 339]
LC50, HF [1]: > 100 µg
LC50, CL [2]: 0.017%
LC50, TBW, E (TBW-E) [3]: > 0.1%
LC50, MW [4]: > 0.01%

Fc1c(F)c(F)c(COC(=Nc2cccc(Cl)c2Cl)C(Cl)Cl)c(F)c1F [Compound 454]
LC50, HF [1]: > 100 µg
LC50, CL [2]: 0.03%
LC50, TBW, E (TBW-E) [3]: > 0.1%

Cc1c(COC(=Nc2ccc(Cl)cc2)C(C)C)cccc1-c1ccccc1 [Compound 455]
LC50, HF [1]: > 100 µg
LC50, CL [2]: 0.0025%
LC50, TBW, E (TBW-E) [3]: > 0.1%

Cc1c(COC(=Nc2ccc(F)cc2)C(C)C)cccc1-c1ccccc1 [Compound 458]
LC50, HF [1]: 100 µg
LC50, CL [2]: 0.007%
LC50, TBW, E (TBW-E) [3]: > 0.05%

CC(C)C(=Nc1ccc2c(c1)OCO2)OCc1c(F)c(F)c(F)c(F)c1F [Compound 464]
LC50, HF [1]: > 100 µg
LC50, CL [2]: 0.08%
LC50, TBW, E (TBW-E) [3]: > 0.1%

CC(C)C(=Nc1ccc2c(c1)OCO2)OCc1cccc(Oc2ccccc2)n1 [Compound 467]
LC50, HF [1]: 6 µg
LC50, CL [2]: 0.003%
LC50, TBW, E (TBW-E) [3]: 0.04%

CC(C)C(=Nc1ccc2c(c1)OC(C)(C)O2)OCc1cccc(Oc2ccc(Cl)cc2)n1 [Compound 468]
LC50, HF [1]: 50 µg
LC50, CL [2]: > 0.1%
LC50, TBW, E (TBW-E) [3]: > 0.1%

CC(C)C(=Nc1cccc(C(F)(F)F)c1)OCc1cccc(Oc2ccncc2)c1 [Compound 469]
LC50, HF [1]: 40 µg
LC50, CL [2]: 0.02%
LC50, TBW, E (TBW-E) [3]: > 0.1%

CC(C)C(=Nc1ccc(F)c(Cl)c1)OCc1cccc(Oc2ccncc2)c1 [Compound 470]
LC50, HF [1]: 25 µg
LC50, CL [2]: 0.02%
LC50, TBW, E (TBW-E) [3]: > 0.1%

CC(C)C(=Nc1ccc(F)c(Cl)c1)OCc1cccc(OCc2ccccc2)c1 [Compound 472]
LC50, HF [1]: > 100 µg
LC50, CL [2]: 0.0025%
LC50, TBW, E (TBW-E) [3]: > 0.1%

CC(C)C(=Nc1ccc(F)c(Cl)c1)OCc1ccc(F)c(Br)c1 [Compound 473]
LC50, HF [1]: > 100 µg
LC50, CL [2]: 0.025%
LC50, TBW, E (TBW-E) [3]: > 0.1%

CC(C)C(=Nc1ccc(F)c(Cl)c1)OCc1coc(Cc2ccccc2)c1 [Compound 474]
LC50, HF [1]: 8 µg
LC50, CL [2]: 0.0012%
LC50, TBW, E (TBW-E) [3]: > 0.1%

CC(C)C(=Nc1cccc(C(F)(F)F)c1)OCc1ccc(OCc2ccccc2)cc1 [Compound 476]
LC50, HF [1]: > 100 µg
LC50, CL [2]: 0.015%
LC50, TBW, E (TBW-E) [3]: > 0.1%

C=CCOc1cccc(COC(=Nc2cccc(C(F)(F)F)c2)C(C)C)c1 [Compound 480]
LC50, HF [1]: > 100 µg
LC50, CL [2]: 0.01%
LC50, TBW, E (TBW-E) [3]: > 0.1%

C=CCOc1cccc(COC(=Nc2ccc(Cl)c(Cl)c2)C(C)C)c1 [Compound 481]
LC50, HF [1]: > 100 µg
LC50, CL [2]: 0.015%
LC50, TBW, E (TBW-E) [3]: > 0.1%

CC(C)C(=Nc1ccc(Cl)cc1)OCc1coc(Cc2ccccc2)c1 [Compound 484]
LC50, HF [1]: 16 µg
LC50, CL [2]: 0.003%
LC50, TBW, E (TBW-E) [3]: > 0.1%

CC(C)C(=Nc1ccc(F)c(F)c1)OCc1coc(Cc2ccccc2)c1 [Compound 485]
LC50, HF [1]: 24 µg
LC50, CL [2]: > 0.1%
LC50, TBW, E (TBW-E) [3]: > 0.1%

CC(C)C(=Nc1ccc(F)c(Cl)c1)OCc1ccc(OCc2ccc(F)cc2)cc1 [Compound 487]
LC50, HF [1]: > 100 µg
LC50, CL [2]: 0.023%
LC50, TBW, E (TBW-E) [3]: > 0.1%

CC(C)C(=Nc1cccc(C(F)(F)F)c1)OCc1ccc(OCc2ccc(F)cc2)cc1 [Compound 488]
LC50, HF [1]: > 100 µg
LC50, CL [2]: 0.025%
LC50, TBW, E (TBW-E) [3]: > 0.1%

CC(C)C(=Nc1cccc(C(F)(F)F)c1)OCc1cccc(OCc2ccc(F)cc2)c1 [Compound 489]
LC50, HF [1]: > 100 µg
LC50, CL [2]: < 0.1%
LC50, TBW, E (TBW-E) [3]: > 0.1%

CC(C)C(=Nc1ccc(F)cc1)OCc1coc(Cc2ccccc2)c1 [Compound 491]
LC50, HF [1]: 9 µg
LC50, CL [2]: 0.0028%
LC50, TBW, E (TBW-E) [3]: 0.08%

CC(C)C(=Nc1cccc(C(F)(F)F)c1)OCc1cccc(Oc2ccc(Br)cc2)n1 [Compound 493]
LC50, HF [1]: 36 µg
LC50, CL [2]: 0.0008%
LC50, TBW, E (TBW-E) [3]: 0.05%

Cc1ccc(Oc2cccc(COC(=Nc3ccc(F)c(Cl)c3)C(C)C)n2)cc1 [Compound 494]
LC50, HF [1]: 34 µg
LC50, CL [2]: 0.003%
LC50, TBW, E (TBW-E) [3]: > 0.1%

Cc1ccc(Oc2cccc(COC(=Nc3cccc(C(F)(F)F)c3)C(C)C)n2)cc1 [Compound 495]
LC50, HF [1]: > 100 µg
LC50, CL [2]: 0.012%
LC50, TBW, E (TBW-E) [3]: 0.1%

CC(C)C(=Nc1ccc(C(C)(C)C)cc1)OCc1cccc(Oc2ccccc2)n1 [Compound 496]
LC50, HF [1]: > 100 µg
LC50, CL [2]: 0.006%
LC50, TBW, E (TBW-E) [3]: > 0.1%

CC(C)C(=Nc1ccc(C(C)(C)C)cc1)OCc1cccc(Oc2ccc(Cl)cc2)n1 [Compound 497]
LC50, HF [1]: > 100 µg
LC50, CL [2]: 0.0075%
LC50, TBW, E (TBW-E) [3]: > 0.1%

CC(C)C(=Nc1ccc(F)c(Cl)c1)OC(C)c1cccc(Oc2ccccc2)n1 (stereo not drawn) [Compound 498]
LC50, HF [1]: 49 µg
LC50, CL [2]: 0.002%
LC50, TBW, E (TBW-E) [3]: > 0.1%

CC(C)C(=Nc1cccc(C(F)(F)F)c1)OC(C)c1cccc(Oc2ccccc2)n1 (stereo not drawn) [Compound 499]
LC50, HF [1]: 63 µg
LC50, CL [2]: 0.0024%
LC50, TBW, E (TBW-E) [3]: > 0.1%

COCc1c(F)c(F)c(COC(=Nc2ccc3c(c2)OCO3)C(C)C)c(F)c1F [Compound 501]
LC50, HF [1]: 20 µg
LC50, CL [2]: 0.00045%
LC50, TBW, E (TBW-E) [3]: > 0.1%
